Values of other authors as cited in patent publication US20220370615A1, “Prevention of Illicit Manufacture of Methamphetamine from Pseudoephedrine Using Food Flavor Excipients” (Satara Pharmaceuticals, priority 2021, published 2022).

Conditions: species and route not given

CC(=O)c1cnccn1 [Acetylpyrazine]
LD50: > 4000 mg/kg
